# Results as given in ChEMBL document CHEMBL4819104, “Discovery of 2-amino-3-amido-5-aryl-pyridines as highly potent, orally bioavailable, and efficacious PERK kinase inhibitors” (Bioorg Med Chem Lett, 2021).
# Columns and labels:
# [1] = biological target: Epithelial discoidin domain-containing receptor 1 (Homo sapiens) (UniProt Q08345); experiment: Inhibition of wild-type human partial length DDR1 (R565 to V876 residues) expressed in bacterial expression system assessed as residual activity at 10 uM by Kinomescan method relative to control
# [2] = biological target: BDNF/NT-3 growth factors receptor (Homo sapiens) (UniProt Q16620); experiment: Inhibition of wild-type human partial length TRKB (Q547 to G838 residues) expressed in mammalian expression system assessed as residual activity at 10 uM by Kinomescan method relative to control
# [3] = biological target: Mast/stem cell growth factor receptor Kit (Homo sapiens) (UniProt P10721); experiment: Inhibition of wild-type human partial length KIT (I571 to D952 residues) expressed in bacterial expression system assessed as residual activity at 10 uM by Kinomescan method relative to control
# [4] = biological target: T1, Mitogen-activated protein kinase 12 (Homo sapiens) (UniProt P53778); experiment: Inhibition of wild-type human full length p38-gamma (M1 to L367 residues) expressed in mammalian expression system assessed as residual activity at 10 uM by Kinomescan method relative to control
# T1 sequence (whole entry): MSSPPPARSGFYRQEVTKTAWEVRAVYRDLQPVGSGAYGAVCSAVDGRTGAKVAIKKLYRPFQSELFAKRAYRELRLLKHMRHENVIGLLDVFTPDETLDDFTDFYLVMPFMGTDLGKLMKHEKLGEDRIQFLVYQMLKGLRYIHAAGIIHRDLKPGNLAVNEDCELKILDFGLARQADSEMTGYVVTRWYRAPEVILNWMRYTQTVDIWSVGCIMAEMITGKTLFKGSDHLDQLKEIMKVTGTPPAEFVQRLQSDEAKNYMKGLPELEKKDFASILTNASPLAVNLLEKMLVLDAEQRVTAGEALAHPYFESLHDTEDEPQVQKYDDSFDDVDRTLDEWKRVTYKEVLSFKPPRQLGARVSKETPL
# [5] = biological target: T2, Receptor-interacting serine/threonine-protein kinase 1 (Homo sapiens) (UniProt Q13546); experiment: Inhibition of wild-type human partial length RIPK1 (M1 to K305 residues) expressed in bacterial expression system assessed as residual activity at 10 uM by Kinomescan method relative to control
# T2 sequence (whole entry): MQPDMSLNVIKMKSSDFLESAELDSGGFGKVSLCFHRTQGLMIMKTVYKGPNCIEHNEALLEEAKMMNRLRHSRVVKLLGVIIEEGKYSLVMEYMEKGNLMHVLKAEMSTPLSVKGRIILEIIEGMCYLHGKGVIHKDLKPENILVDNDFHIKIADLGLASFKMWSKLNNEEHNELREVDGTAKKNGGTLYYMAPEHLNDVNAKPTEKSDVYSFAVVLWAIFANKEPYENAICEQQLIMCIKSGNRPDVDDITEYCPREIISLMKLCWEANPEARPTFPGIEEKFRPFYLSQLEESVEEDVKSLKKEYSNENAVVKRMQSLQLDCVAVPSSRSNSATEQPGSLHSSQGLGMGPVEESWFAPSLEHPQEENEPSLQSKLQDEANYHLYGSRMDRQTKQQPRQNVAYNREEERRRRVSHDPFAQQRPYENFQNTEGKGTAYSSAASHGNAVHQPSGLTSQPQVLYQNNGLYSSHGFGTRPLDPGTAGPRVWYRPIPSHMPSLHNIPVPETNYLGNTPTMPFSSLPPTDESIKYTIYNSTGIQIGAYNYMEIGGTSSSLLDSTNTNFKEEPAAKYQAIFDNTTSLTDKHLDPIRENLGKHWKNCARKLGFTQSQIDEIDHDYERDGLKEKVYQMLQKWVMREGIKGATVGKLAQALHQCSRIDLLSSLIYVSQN
# [6] = biological target: Macrophage colony-stimulating factor 1 receptor (Homo sapiens) (UniProt P07333); experiment: Inhibition of wild-type human partial length CSF1R (I564 to S939 residues) expressed in bacterial expression system assessed as residual activity at 10 uM by Kinomescan method relative to control
# [7] = biological target: Angiopoietin-1 receptor (Homo sapiens) (UniProt Q02763); experiment: Inhibition of wild-type human partial length TIE2 (N804 to T1112 residues) expressed in bacterial expression system assessed as residual activity at 10 uM by Kinomescan method relative to control
# [8] = biological target: Tyrosine-protein kinase receptor UFO (Homo sapiens) (UniProt P30530); experiment: Inhibition of wild-type human partial length AXL (R497 to Y821 residues) expressed in bacterial expression system assessed as residual activity at 10 uM by Kinomescan method relative to control
# [9] = biological target: Aurora kinase B (Homo sapiens) (UniProt Q96GD4); experiment: Inhibition of wild-type human partial length AURKB (D25 to A303 residues) expressed in mammalian expression system assessed as residual activity at 10 uM by Kinomescan method relative to control
# [10] = tested on: Tyrosine-protein kinase ABL1 (Homo sapiens), P00519 [F317L]; experiment: Inhibition of human non-phosphorylated ABL1 F317L mutant (S229 to K512 residues) expressed in mammalian expression system assessed as residual activity at 10 uM by Kinomescan method relative to control
# [11] = biological target: Platelet-derived growth factor receptor beta (Homo sapiens) (UniProt P09619); experiment: Inhibition of wild-type human partial length PDGFRbeta (V582 to Y1009 residues) expressed in bacterial expression system assessed as residual activity at 10 uM by Kinomescan method relative to control
# [12] = biological target: Proto-oncogene tyrosine-protein kinase Src (Homo sapiens) (UniProt P12931); experiment: Inhibition of wild-type human partial length SRC (L240 to L536 residues) expressed in bacterial expression system assessed as residual activity at 10 uM by Kinomescan method relative to control
# [13] = Aqueous solubility of the compound; assay type: physicochemical; conditions: buffer
# [14] = biological target: T3, Eukaryotic translation initiation factor 2-alpha kinase 3 (Homo sapiens, UniProt Q9NZJ5); experiment: Inhibition of human His-tagged PERK expressed in Escherichia coli assessed as eIF2alpha phosphorylation by TR-FRET assay
# T3 sequence (Q9NZJ5 whole entry): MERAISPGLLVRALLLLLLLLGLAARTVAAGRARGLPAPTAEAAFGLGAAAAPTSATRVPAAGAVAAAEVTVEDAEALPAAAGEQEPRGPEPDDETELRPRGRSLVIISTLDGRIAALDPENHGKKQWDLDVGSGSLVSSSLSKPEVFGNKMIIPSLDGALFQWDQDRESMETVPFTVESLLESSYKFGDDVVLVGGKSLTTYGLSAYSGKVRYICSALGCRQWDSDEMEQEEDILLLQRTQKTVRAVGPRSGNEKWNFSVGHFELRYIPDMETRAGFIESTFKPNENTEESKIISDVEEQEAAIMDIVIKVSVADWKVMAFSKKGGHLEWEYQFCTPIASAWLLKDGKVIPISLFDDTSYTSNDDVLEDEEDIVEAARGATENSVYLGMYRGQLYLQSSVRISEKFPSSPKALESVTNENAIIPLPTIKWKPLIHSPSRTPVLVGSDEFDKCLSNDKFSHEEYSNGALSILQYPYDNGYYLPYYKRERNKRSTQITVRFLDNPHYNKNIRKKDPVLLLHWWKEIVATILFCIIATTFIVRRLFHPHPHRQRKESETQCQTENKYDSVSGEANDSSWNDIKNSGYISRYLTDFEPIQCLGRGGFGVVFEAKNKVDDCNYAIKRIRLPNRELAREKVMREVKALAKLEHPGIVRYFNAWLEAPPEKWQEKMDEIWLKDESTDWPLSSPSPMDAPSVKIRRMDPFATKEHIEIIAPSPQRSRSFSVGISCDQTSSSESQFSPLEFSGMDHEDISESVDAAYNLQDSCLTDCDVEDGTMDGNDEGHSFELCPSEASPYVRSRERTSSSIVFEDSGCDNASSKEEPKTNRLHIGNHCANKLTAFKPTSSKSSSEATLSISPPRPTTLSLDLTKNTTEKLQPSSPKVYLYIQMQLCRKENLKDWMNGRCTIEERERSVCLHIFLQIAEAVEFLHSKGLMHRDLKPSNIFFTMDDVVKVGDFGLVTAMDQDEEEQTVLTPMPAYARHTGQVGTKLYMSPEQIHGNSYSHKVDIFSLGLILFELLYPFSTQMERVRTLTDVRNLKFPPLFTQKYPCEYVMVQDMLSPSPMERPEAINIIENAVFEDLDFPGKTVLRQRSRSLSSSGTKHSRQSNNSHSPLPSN
# [15] = Oral bioavailability in mouse at 10 mg/kg; assay type: ADME, organism-based; conditions: in vivo
# [16] = AUC (0 to last) in mouse at 10 mg/kg, po; assay type: ADME, organism-based; design: time 0 - last, route oral, dose 10 mg/kg; conditions: in vivo
# [17] = Plasma protein binding in mouse; assay type: ADME, cell-free; conditions: read-out: PPB (converted)
# [18] = Plasma protein binding in human; assay type: ADME, cell-free; conditions: read-out: PPB (converted)
# [19] = Plasma protein binding in dog; assay type: ADME, cell-free, Canis lupus familiaris; conditions: read-out: PPB (converted)
# [20] = Plasma protein binding in rat; assay type: ADME, cell-free; conditions: read-out: PPB (converted)
# [21] = Cmax in mouse at 10 mg/kg, po; assay type: ADME, organism-based; design: route oral, dose 10 mg/kg; conditions: in vivo
# [22] = Half life in human hepatocytes; assay type: ADME, cell-based, Hepatocyte
# [23] = Half life in mouse at 10 mg/kg, po; assay type: ADME, organism-based; conditions: in vivo
# [24] = Half life in rat hepatocytes; assay type: ADME, cell-based, Hepatocyte
# [25] = Half life in mouse hepatocytes; assay type: ADME, cell-based, Hepatocyte
# [26] = Efflux ratio of apparent permeability in human Caco-2 cells; assay type: ADME, cell-based
# [27] = Apparent permeability of the compound across apical to basolateral side in human Caco-2 cells; assay type: ADME, cell-based; conditions: read-out: permeability
# [28] = Half life in dog hepatocytes; assay type: ADME, cell-based, Canis lupus familiaris, Hepatocyte
# Tyrosine-protein kinase ABL1 (Homo sapiens), P00519 [F317L], sequence (P00519 whole entry F317L, the tested form may be a part): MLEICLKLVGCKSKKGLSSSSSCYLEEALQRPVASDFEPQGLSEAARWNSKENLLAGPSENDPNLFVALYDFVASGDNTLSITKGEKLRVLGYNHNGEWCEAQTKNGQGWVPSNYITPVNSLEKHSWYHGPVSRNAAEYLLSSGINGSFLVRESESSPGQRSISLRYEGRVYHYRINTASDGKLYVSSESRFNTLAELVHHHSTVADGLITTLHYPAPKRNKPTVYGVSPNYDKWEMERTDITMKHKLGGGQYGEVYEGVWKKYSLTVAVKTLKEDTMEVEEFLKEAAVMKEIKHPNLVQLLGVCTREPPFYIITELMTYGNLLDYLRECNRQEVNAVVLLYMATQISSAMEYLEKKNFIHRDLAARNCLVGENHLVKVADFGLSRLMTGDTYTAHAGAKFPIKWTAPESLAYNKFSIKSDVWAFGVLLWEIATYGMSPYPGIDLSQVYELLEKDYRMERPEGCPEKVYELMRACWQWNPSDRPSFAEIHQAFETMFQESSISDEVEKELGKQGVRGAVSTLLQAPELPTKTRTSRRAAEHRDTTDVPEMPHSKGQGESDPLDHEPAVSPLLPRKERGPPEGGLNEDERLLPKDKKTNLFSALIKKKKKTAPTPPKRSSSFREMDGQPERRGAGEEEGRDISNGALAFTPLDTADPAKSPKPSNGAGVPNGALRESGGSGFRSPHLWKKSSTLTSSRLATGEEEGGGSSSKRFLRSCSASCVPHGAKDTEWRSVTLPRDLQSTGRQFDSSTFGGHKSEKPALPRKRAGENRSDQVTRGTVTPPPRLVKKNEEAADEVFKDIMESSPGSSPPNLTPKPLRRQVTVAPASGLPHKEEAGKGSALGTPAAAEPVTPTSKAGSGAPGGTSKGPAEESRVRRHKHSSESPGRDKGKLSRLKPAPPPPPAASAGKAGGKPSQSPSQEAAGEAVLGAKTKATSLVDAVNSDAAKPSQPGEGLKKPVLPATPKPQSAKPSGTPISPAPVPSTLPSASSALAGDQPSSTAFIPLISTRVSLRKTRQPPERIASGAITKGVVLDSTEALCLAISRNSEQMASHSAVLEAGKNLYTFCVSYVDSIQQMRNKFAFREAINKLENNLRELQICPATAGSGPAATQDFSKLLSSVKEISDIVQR
# Epithelial discoidin domain-containing receptor 1 (Homo sapiens), sequence (Q08345 whole entry, the tested form may be a part): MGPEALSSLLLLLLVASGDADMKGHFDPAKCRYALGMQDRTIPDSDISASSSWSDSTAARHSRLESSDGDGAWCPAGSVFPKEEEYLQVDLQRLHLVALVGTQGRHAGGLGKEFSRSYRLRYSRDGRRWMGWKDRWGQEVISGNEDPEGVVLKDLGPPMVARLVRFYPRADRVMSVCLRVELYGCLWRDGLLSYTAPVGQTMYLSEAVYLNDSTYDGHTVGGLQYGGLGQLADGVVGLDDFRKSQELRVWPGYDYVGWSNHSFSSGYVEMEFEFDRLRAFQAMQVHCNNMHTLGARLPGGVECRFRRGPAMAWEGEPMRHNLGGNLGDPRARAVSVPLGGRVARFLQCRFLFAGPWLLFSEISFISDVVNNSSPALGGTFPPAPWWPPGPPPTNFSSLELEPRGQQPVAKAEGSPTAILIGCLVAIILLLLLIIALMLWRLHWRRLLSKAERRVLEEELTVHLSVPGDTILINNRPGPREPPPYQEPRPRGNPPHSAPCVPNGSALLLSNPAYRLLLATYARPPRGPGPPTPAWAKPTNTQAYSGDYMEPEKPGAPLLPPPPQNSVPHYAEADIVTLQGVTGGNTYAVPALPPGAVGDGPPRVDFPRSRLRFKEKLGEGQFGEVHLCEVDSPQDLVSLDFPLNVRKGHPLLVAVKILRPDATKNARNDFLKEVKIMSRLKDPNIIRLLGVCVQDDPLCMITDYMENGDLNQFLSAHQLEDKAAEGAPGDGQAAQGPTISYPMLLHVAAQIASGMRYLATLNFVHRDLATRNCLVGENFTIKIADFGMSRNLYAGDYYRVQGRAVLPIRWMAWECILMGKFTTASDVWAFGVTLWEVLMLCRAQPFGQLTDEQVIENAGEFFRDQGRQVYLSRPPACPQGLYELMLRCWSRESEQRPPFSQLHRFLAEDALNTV
# Tyrosine-protein kinase receptor UFO (Homo sapiens), sequence (P30530 whole entry, the tested form may be a part): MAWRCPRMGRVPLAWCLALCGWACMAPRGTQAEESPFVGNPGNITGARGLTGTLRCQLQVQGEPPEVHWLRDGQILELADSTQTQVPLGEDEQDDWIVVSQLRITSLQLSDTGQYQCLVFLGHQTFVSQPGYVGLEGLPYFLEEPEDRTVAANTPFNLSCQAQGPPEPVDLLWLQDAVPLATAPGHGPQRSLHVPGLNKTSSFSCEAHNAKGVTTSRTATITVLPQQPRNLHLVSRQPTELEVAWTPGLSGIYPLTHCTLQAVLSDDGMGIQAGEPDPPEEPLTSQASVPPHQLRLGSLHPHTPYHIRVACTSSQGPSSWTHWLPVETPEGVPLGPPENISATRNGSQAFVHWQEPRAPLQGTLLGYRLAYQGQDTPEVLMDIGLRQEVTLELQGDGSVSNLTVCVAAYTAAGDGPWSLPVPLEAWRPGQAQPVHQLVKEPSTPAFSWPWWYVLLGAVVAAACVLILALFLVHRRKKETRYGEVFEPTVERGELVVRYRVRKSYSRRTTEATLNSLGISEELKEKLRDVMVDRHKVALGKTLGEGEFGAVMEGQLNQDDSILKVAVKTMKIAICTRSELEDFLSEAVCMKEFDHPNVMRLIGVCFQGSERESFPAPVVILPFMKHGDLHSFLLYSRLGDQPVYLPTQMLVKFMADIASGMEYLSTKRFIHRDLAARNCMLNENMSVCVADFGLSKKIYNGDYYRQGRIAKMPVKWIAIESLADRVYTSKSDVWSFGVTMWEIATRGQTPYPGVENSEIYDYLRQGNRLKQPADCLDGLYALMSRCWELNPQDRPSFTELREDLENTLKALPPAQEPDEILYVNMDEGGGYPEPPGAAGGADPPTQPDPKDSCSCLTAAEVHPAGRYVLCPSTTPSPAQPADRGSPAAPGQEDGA
# Angiopoietin-1 receptor (Homo sapiens), sequence (Q02763 whole entry, the tested form may be a part): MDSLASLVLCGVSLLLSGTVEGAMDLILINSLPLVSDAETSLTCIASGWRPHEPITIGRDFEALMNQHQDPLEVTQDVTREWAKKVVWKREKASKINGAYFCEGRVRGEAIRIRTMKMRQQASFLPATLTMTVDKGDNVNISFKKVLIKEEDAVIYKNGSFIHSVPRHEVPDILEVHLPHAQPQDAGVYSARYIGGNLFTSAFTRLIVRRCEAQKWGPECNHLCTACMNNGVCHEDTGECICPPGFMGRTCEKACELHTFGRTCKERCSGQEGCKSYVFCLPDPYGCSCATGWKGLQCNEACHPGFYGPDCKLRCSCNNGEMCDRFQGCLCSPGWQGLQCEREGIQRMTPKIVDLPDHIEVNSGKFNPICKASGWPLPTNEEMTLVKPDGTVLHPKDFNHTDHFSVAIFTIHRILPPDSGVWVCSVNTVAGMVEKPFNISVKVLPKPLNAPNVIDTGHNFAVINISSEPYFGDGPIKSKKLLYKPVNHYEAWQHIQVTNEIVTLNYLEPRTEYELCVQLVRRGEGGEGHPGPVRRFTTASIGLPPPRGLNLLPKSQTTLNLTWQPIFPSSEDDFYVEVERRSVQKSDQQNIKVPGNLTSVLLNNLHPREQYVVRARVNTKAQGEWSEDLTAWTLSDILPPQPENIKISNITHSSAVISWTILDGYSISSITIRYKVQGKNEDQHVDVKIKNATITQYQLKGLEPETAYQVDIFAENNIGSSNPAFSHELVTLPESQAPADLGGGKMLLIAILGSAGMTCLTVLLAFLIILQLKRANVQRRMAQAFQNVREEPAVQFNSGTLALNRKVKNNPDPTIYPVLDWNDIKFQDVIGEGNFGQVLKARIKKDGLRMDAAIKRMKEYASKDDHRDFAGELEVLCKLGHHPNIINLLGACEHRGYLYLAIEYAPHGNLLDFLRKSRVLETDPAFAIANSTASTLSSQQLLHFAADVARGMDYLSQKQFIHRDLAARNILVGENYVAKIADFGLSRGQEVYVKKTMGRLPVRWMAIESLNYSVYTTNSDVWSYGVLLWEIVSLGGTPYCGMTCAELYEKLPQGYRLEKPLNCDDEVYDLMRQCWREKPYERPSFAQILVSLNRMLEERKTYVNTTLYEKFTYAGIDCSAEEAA
# BDNF/NT-3 growth factors receptor (Homo sapiens), sequence (Q16620 32-822 limits assumed): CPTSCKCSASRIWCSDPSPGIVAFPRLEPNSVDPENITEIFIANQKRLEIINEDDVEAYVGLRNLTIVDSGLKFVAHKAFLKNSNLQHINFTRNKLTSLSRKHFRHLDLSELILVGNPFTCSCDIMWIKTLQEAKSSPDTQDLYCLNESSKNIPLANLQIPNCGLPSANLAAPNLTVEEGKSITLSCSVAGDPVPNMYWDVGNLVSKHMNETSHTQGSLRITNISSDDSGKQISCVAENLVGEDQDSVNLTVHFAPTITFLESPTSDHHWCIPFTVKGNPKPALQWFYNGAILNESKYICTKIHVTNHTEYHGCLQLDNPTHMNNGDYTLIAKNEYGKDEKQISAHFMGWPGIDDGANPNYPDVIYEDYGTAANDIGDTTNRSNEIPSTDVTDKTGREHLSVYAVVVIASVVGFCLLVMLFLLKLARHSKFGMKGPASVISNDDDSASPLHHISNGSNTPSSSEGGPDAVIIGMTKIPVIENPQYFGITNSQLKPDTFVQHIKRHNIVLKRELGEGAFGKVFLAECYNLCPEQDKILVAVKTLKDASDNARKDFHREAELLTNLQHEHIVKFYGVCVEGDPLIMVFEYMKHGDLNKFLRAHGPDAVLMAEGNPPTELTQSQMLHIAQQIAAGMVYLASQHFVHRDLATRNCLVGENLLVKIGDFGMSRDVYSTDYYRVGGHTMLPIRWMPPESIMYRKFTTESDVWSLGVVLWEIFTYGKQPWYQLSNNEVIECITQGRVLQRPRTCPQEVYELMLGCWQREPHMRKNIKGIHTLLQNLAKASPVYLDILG
smiles,measurement,setting,value
Cc1cccc(CC(=O)N2CCc3c2ccc(-c2cn(C)c4ncnc(N)c24)c3F)n1,Activity,[1],1.3%
same,Activity,[2],6.5%
same,Activity,[3],0.1%
same,Activity,[4],3.7%
same,Activity,[5],0%
same,Activity,[6],1.8%
same,Activity,[7],5.3%
same,Activity,[8],8.2%
same,Activity,[9],5.3%
same,Activity,[10],0%
same,Activity,[11],0.2%
same,Activity,[12],7%
Cc1cc(NC(=O)[C@H](O)c2cc(F)cc(F)c2)ccc1-c1cnc(N)c(C(=O)NC(C)C)c1,solubility,[13],31 µM
same,IC50,[14],4 nM
same,bioavailability,[15],49%
same,AUC(0-t),[16],2000 ng·h/mL
same,fraction unbound,[17],0.017
same,fraction unbound,[18],0.007
same,fraction unbound,[19],0.014
same,fraction unbound,[20],0.024
same,Cmax,[21],1600 ng/mL
same,half-life,[22],4.08 h
same,half-life,[23],1.2 h
same,half-life,[24],9.3 min
same,half-life,[25],1.15 h
same,efflux ratio,[26],2
same,Papp A→B,[27],15 ×10⁻⁶ cm/s
same,half-life,[28],3.12 h
